Measured values taken from ChEMBL document CHEMBL1201862, “PubChem BioAssay data set” (2004).
Activity calls are given as the source filed them.

Experiments:
[1] = molecular target: fMet-Leu-Phe receptor (Homo sapiens, UniProt P21462); assay: FPR ligands, dose response (AID 519); type: functional
[2] = THP-1 cell cytotoxicity, dose response, cytotoxicity control for non-replicating M. tuberculosis project (AID 489025); type: functional
[3] = Vero E6 cell cytotoxicity, dose response, cytotoxicity control for non-replicating M. tuberculosis project, secondary assay (AID 492998); type: functional, VeroE6; details: Vero C1008
[4] = molecular target: T1, Microphthalmia-associated transcription factor (Homo sapiens, UniProt O75030); assay: TRPM1 promoter luciferase signal decrease, dose response, MITF inhibitor project, cell-based, SK-MEL-5, cherry-picked, set 3 (AID 493073); type: functional
T1 sequence (O75030 whole entry): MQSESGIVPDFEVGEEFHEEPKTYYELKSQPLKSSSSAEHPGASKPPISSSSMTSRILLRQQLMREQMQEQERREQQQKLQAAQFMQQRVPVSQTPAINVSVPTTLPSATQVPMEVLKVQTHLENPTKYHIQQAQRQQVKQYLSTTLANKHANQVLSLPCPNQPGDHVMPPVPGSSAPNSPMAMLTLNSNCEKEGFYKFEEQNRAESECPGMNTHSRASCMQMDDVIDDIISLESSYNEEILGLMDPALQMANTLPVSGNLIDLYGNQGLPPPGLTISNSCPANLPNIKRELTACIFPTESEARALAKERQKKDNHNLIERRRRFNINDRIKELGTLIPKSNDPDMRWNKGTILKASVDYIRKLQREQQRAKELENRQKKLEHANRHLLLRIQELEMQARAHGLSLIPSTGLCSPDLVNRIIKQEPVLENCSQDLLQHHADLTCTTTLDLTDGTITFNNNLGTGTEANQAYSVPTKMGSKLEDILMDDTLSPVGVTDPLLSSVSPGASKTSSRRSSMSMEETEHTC

[5] = A375 melanoma cell viability loss, dose response, counter-screen for MITF inhibitor project, CellTiter-Glo luminescence, dry powder, set 4 (AID 624364); type: functional, cell-based; details: A-375;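 also: A375 melanoma cells are MITF independent so this is a counter screen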
[6] = A375 melanoma cell cytotoxicity, dose response, counter-screen for MITF inhibitor project, CellTiter-Glo luminescence, dry powder, set 2 (AID 624489); type: functional, cell-based; details: A-375;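 also: actives are compounds lowering A375 viability meaning general cytotoxicity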
[7] = molecular target: Major prion protein (Homo sapiens, UniProt P04156); type: functional, cell-based
[8] = cells
[9] = molecular target: Mitogen-activated protein kinase 10 (Homo sapiens, UniProt P53779); assay: Dose response biochemical screening assay for inhibitors of c-Jun N-Terminal Kinase 3 (JNK3). [Related pubchem assays: 746 ]
Mitogen-activated protein kinase 10, sequence (P53779 whole entry): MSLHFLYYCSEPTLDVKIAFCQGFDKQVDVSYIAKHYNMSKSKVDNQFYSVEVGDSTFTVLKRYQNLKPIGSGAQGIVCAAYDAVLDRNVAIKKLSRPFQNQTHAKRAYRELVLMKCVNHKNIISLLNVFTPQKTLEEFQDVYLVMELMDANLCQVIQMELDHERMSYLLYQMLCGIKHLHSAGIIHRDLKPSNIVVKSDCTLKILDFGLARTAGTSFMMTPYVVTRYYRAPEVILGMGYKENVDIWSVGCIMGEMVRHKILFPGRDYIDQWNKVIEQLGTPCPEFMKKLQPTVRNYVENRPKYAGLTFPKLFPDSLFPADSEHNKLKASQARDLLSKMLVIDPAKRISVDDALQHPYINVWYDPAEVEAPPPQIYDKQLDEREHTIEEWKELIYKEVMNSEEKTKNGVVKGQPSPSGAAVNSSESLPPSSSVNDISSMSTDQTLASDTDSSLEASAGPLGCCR

[10] = Luminescence-based cell-based high throughput dose response assay to identify activators of the DAF-12 from the parasite S. stercoralis (ssDAF-12).; type: functional
[11] = cytotoxicity toward NIH3T3 fibroblasts, dose response, counter-screen, cell-based, ATP luminescence, mouse fibroblasts (AID 2010); type: functional;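 also: cells exposed to compound for about 90 hours before reading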
[12] = inhibitors of intracellular T. cruzi replication, confirmation, NIH3T3 host cells, beta-gal luminescence (AID 2044); type: functional, cell-based;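 also: intracellular parasites grown in NIH/3T3 mouse fibroblasts as host cells; luminescent beta-galactosidase reporter signal from transgenic T. cruzi replicating inside host cells; inhibitors lower the luminescence signal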
[13] = molecular target: T2, Replicative DNA helicase DnaB (Mycobacterium tuberculosis, UniProt P9WMR3); assay: DnaB intein splicing inhibitors, dose response, biochemical, cell-free fluorescence (AID 449749); type: functional
T2 sequence (P9WMR3 whole entry): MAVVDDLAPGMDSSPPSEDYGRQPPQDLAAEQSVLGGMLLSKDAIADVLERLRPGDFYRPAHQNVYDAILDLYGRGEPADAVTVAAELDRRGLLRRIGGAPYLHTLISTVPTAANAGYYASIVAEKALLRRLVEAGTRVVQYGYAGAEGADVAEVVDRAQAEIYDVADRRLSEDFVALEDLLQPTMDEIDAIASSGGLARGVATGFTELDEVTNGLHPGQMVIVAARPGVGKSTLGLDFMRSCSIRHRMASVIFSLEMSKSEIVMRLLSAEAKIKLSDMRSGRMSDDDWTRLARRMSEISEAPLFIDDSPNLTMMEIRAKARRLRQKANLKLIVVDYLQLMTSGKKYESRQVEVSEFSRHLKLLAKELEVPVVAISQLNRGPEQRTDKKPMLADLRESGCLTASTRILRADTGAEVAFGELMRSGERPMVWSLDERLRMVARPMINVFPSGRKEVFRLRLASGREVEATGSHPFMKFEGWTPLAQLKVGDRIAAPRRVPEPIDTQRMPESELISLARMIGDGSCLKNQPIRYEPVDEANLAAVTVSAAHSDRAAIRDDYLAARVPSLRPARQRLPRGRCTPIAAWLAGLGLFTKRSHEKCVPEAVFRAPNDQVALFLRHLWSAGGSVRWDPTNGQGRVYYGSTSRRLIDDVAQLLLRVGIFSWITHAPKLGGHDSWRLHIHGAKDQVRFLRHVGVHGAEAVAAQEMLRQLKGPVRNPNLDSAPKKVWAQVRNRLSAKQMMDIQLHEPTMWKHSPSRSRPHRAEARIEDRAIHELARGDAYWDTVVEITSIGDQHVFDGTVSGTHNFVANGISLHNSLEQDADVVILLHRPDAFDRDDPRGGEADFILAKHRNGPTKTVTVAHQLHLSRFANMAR

[14] = molecular target: Nucleotide-binding oligomerization domain-containing protein 2 (Homo sapiens, UniProt Q9HC29); assay: NOD2 signaling inhibitors, cell-based, luminescence, uHTS, HEK293 (AID 1566); type: functional
Nucleotide-binding oligomerization domain-containing protein 2, sequence (Q9HC29 whole entry, the tested form may be a part): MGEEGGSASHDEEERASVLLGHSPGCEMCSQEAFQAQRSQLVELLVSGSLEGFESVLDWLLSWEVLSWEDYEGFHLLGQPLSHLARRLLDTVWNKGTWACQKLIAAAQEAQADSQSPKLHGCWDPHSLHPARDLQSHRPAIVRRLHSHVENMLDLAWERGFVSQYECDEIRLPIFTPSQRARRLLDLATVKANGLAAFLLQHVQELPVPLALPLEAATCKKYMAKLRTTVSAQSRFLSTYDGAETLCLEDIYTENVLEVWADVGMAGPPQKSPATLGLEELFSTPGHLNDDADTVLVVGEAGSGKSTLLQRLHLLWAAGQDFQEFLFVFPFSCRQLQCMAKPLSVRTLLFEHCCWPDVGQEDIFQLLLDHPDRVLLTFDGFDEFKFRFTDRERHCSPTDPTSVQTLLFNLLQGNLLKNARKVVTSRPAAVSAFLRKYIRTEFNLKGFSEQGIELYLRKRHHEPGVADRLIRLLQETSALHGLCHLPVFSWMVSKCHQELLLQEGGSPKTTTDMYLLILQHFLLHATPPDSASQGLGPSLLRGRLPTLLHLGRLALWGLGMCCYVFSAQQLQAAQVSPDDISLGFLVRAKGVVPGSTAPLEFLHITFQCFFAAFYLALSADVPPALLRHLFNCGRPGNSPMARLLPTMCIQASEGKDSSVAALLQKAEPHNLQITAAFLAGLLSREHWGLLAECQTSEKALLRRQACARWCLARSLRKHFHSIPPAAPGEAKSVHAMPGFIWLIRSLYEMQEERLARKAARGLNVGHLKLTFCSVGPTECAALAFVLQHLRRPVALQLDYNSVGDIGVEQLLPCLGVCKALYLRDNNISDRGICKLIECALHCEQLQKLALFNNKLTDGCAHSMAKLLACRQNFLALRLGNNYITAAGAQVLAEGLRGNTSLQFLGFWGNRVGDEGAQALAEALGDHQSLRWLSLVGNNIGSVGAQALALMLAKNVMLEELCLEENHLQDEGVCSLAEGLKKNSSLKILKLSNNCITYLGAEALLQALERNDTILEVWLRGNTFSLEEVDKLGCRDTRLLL

[15] = system: HEK293; assay: cells; type: functional, cell-based; details: Homo sapiens
[16] = molecular target: T3, Trace amine-associated receptor 1 (Homo sapiens, UniProt Q96RJ0); assay: Fluorescence-based cell-based high throughput dose response assay to identify agonists of the human trace amine associated receptor 1 (TAAR1).; type: functional
T3 sequence (Q96RJ0 whole entry): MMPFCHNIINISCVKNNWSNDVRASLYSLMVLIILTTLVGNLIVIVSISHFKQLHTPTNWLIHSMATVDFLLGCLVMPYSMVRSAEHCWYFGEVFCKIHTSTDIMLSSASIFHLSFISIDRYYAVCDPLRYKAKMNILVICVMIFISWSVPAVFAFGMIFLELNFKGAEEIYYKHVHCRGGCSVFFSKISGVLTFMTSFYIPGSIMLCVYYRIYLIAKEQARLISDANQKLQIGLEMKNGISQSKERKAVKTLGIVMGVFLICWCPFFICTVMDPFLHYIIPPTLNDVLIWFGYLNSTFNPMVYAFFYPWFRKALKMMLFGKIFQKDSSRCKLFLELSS

[17] = system: HEK293; assay: cells; type: functional, cell-based; details: Homo sapiens; remark: listed apart in the source
[18] = molecular target: T3, Trace amine-associated receptor 1; assay: Counterscreen for agonists of the human trace amine associated receptor 1 (hTAAR1): Fluorescence-based cell-based high throughput dose response assay to identify hTAAR1 agonist that also desensitize TAAR1 receptor response.; type: functional
[19] = system: HEK293; assay: cells; type: functional, cell-based; details: Homo sapiens; remark: listed apart in the source
[20] = molecular target: T4, Protein RecA (Mycobacterium tuberculosis, UniProt P9WHJ3); assay: Fluorescence Cell-Free Homogeneous Dose Retest to Identify Inhibitors of RecA-Intein Splicing Activity. [Related pubchem assays (depositor defined):AID2097, AID2223, AID489010, AID492950]; type: functional
T4 sequence (P9WHJ3 whole entry): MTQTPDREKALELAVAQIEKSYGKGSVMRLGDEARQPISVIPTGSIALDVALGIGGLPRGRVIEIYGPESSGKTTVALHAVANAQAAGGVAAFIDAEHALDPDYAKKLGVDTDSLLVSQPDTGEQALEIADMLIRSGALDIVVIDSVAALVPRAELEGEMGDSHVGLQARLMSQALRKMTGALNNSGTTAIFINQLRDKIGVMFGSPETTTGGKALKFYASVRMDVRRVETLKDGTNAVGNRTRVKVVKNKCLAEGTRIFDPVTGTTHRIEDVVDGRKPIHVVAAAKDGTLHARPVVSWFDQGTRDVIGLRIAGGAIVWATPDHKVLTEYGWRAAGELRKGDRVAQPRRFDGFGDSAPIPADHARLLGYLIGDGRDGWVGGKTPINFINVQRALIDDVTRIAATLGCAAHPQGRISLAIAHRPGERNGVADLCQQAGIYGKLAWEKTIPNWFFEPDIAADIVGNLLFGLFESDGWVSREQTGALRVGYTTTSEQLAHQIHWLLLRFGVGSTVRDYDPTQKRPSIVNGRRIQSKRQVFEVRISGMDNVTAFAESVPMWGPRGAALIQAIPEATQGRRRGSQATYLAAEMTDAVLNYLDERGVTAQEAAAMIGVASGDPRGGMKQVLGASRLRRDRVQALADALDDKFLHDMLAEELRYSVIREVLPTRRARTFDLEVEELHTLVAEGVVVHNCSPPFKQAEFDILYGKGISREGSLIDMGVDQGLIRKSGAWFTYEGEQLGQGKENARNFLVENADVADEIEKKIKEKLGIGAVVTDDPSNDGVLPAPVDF

[21] = system: HEK293; assay: NOD1 signaling inhibitors, primary screen, cell-based, luminescence, uHTS (AID 1578); type: functional; details: Homo sapiens
[22] = cells; type: functional, cell-based
[23] = cells; type: functional, cell-based; remark: listed apart in the source
[24] = system: HEK293; assay: NOD2 signaling inhibitors in MDP-stimulated cells, cell-based, uHTS, luminescence (AID 2001); type: functional; details: Homo sapiens
[25] = molecular target: Disintegrin and metalloproteinase domain-containing protein 17 (Homo sapiens, UniProt P78536); assay: ADAM17 protease inhibitors, dose response, counter-screen for ADAM10 exosite inhibitor project, biochemical, quenched FRET substrate (AID 743253)
Disintegrin and metalloproteinase domain-containing protein 17, sequence (P78536 whole entry, the tested form may be a part): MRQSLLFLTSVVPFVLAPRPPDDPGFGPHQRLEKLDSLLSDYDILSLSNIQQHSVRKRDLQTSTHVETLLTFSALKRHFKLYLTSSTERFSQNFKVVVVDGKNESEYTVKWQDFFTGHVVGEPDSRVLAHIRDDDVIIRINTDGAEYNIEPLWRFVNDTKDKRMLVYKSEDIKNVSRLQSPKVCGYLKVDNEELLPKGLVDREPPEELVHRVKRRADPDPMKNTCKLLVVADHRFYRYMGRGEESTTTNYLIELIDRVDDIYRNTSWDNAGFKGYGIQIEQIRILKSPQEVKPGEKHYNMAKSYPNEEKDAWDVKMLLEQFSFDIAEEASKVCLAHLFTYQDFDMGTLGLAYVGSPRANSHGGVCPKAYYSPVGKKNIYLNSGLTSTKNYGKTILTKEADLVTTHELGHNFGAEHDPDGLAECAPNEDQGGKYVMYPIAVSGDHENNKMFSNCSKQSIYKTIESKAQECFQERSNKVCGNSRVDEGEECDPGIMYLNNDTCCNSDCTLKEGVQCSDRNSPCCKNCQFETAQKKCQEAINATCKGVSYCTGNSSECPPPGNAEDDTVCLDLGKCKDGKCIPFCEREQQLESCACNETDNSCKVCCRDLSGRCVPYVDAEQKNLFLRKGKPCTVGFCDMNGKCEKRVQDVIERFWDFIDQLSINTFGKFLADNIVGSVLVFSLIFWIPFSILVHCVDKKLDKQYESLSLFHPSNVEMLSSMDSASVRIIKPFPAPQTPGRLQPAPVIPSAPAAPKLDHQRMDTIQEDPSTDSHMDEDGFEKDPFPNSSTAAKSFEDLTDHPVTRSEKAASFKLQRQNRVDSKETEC

[26] = ADAM10 inhibitors, peptide cleavage, dose response, biochemical, QFRET (AID 743254);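 also: ADAM10 enzyme with the DM2 quenched FRET peptide as substrate; EDANS fluorescence gain as the protease cuts the substrate; inhibitor potency against ADAM10 proteolytic activity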
[27] = non-specific cell cytotoxicity, dose response, cytotoxicity control for PAX8 inhibitor project, plate reader, dry powder samples (AID 743021); type: functional, cell-based
[28] = A2780 ovarian cancer cell cytotoxicity, dose response, cytotoxicity control, plate reader, dry powder samples (AID 743046); type: functional, cell-based
[29] = NIH:OVCAR-3 ovarian cancer cell cytotoxicity, dose response, PAX8 inhibitor project, plate reader, dry powder samples (AID 743044); type: functional, cell-based
[30] = cytotoxicity in OVCAR8 ovarian cancer cells, dose response, PAX8 project, cell-based, plate reader, dry powder samples (AID 743197); type: functional; details: OVCAR-8
[31] = molecular target: Paired box protein Pax-8 (Homo sapiens, UniProt Q06710); assay: inhibitors of PAX8-driven TPO luciferase reporter, dose response, RMG-I cells, cherry-pick (AID 687027); type: functional, cell-based;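 also: luciferase reporter driven by Pax8 target thyroperoxidase promoter measured by SteadyGlo luminescence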
Paired box protein Pax-8, sequence (Q06710 whole entry): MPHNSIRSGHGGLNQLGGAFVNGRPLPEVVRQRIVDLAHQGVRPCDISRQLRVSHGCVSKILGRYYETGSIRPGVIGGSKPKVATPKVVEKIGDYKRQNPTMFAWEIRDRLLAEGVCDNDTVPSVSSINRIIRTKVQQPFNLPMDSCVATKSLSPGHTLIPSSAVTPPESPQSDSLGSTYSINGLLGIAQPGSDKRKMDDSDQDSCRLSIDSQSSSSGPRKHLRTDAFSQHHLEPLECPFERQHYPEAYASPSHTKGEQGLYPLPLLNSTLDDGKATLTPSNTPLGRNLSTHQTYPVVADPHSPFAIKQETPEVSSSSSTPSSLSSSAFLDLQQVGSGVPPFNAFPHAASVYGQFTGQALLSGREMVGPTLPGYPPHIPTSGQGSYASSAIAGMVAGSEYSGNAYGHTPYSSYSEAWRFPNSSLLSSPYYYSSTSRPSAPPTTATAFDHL

[32] = A549 cell cytotoxicity, dose response, cytotoxicity control, cherry-picks, 26 µM top dose (AID 1053119); type: functional, cell-based
[33] = HEK293 cell cytotoxicity, dose response, cytotoxicity control, cherry-picks, set 5 (AID 1053117); type: functional, cell-based
[34] = HepG2 cell cytotoxicity, dose response, cytotoxicity control, cherry-picks, set 5 (AID 1053118); type: functional, cell-based
[35] = inhibitors of PGC1a acetylation in cells, dose response, cell-based, cherry-picked samples (AID 720514); type: functional;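 also: potency may reflect raised or lowered acetylation signal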
[36] = growth suppression of beta-catenin-knockout colon cells, dose response, cell-based, HCT116, human colon tumor (AID 1045); type: functional;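 also: HCT116 colon tumor cells with beta catenin knocked out; cells exposed to compound for 60 hours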
[37] = growth suppression of PTEN-null colon cells, dose response, cell-based, HCT116 PTEN knockout (AID 1047); type: functional;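 also: HCT116 colon tumor cells with PTEN knocked out; cells exposed to compound for 60 hours before readout; potency for loss of cell viability measured by luminescence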

fMet-Leu-Phe receptor, sequence (P21462 whole entry): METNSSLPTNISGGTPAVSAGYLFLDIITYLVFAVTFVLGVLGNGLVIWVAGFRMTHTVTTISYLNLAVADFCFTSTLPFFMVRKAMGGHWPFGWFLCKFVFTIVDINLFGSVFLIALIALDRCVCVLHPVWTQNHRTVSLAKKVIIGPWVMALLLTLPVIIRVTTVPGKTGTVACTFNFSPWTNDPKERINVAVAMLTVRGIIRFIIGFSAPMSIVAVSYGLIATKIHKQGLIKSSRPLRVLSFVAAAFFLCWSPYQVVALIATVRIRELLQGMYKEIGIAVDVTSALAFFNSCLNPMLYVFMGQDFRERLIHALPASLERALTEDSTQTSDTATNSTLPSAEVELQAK

COCCCN1C(=O)C(O)=C(C(=O)c2ccco2)C1c1ccccc1 (stereo not given)
Ki [1]: 14.5 µM (active)

COc1ccc(S(=O)(=O)N(C(C)=O)c2ccc(OC(C)=O)c3ccccc23)cc1[N+](=O)[O-]
CC50 [2]: 10.7 µM (active)
CC50 [3]: > 20 µM (active)
AC50 [4]: 11.6 µM (active)
AC50 [5]: 55.5 µM (active)
AC50 [6]: 29.1 µM (active)

COc1ccc(CN(C(=O)c2ccccc2OC)C2CCS(=O)(=O)C2)cc1 (stereo not given)
Ki [1]: > 66.7 µM (inactive)

CSCCC(Nc1ncnc2ccc(Br)cc12)C(=O)O (stereo not given)
IC50 [7]: 1.91 µM (active)
IC50 [8]: > 138 µM (inactive)
IC50 [9]: 45 µM (not active)

COc1ccc2c(C)cc(SCC(=O)c3ccc4c(c3)OCO4)nc2c1
IC50 [10]: > 67.5 µM (inactive)
EC50 [11]: > 60 µM (not active)
EC50 [12]: 1.53 µM (active)

Cc1cc(C(=O)CCl)c(C)n1CCc1ccccc1
AC50 [13]: 16.9 µM (active)
EC50 [14]: > 20 µM (inactive)
IC50 [15]: 18 µM (active)
EC50 [16]: 1.86 µM (active)
IC50 [17]: 5.94 µM (active)
IC50 [18]: 9.06 µM (active)
IC50 [19]: > 20 µM (inactive)
EC50 [20]: 24.4 µM (active)
EC50 [21]: 13.1 µM (active)
EC50 [22]: > 29.9 µM (inactive)
IC50 [23]: > 29.9 µM (inactive)
IC50 [24]: 13.4 µM (inactive)

CC1(Cc2ccc(C(F)(F)F)o2)C(=O)Nc2cc(-c3ccc(F)cc3F)ccc21 (stereo not given)
IC50 [25]: > 69.5 µM (inactive)
IC50 [26]: 15.6 µM (inactive)

C[C@H]1CCCCO[C@H](CN(C)S(=O)(=O)c2ccccc2)[C@@H](C)CN([C@@H](C)CO)C(=O)c2cc(NS(=O)(=O)c3ccc(Cl)cc3)ccc2O1
AC50 [27]: 43.2 µM (active)
AC50 [28]: 19.1 µM (active)
AC50 [29]: 58.4 µM (active)
AC50 [30]: > 70 µM (inactive)
AC50 [31]: 7.4 µM (active)

CO[C@H]1CN(C)C(=O)c2ccc(NC(=O)c3ccc(-c4ccccc4)cc3)cc2OC[C@H](C)NC[C@@H]1C
AC50 [32]: > 52 µM (inactive)
AC50 [33]: > 52 µM (inactive)
AC50 [34]: > 52 µM (inactive)
AC50 [35]: 31.9 µM (active)

CO[C@H]1CN(C)C(=O)c2cc(NC(=O)Nc3cc(Cl)cc(Cl)c3)ccc2OC[C@H](C)NC[C@H]1C
AC50 [32]: > 52 µM (inactive)
AC50 [33]: 34.3 µM (active)
AC50 [34]: 16.6 µM (active)

CCN1CCN(C2=C(NS(=O)(=O)c3cccs3)C(=O)c3ccccc3C2=O)CC1
AC50 [5]: > 70 µM (inactive)
AC50 [6]: 56.1 µM (active)

O=S(=O)(N/N=C/c1cn(Cc2ccccc2)c2ccccc12)c1ccccc1
IC50 [25]: > 69.5 µM (inactive)
EC50 [36]: 35.6 µM (active)
EC50 [37]: 3.27 µM (active)
IC50 [26]: 25.1 µM (inactive)
